Measured values as given in PMC12452389, “Arginine-Derived Cationic Surfactants Containing Phenylalanine and Tryptophan: Evaluation of Antifungal Activity, Biofilm Eradication, Cytotoxicity, and Ecotoxicity” (Journal of Xenobiotics, 2025).
In brackets after ≈: the same amount, converted by molar mass. Like-named read-outs stand apart in the source and are kept apart here. Peptide text beside a SMILES is read from it. * marks the point of attachment. Lauroyl = CCCCCCCCCCCC(=O)*

How the values were obtained:
erythrocytes = assay: Hemolytic activity assay; format: cell-based; conditions: rabbit erythrocytes
Procedure: Fresh rabbit blood was obtained from the Animal Facility of the CID-CSIC (Research and Development Center, Spanish National Research Council, Barcelona, Spain). Sample collection was conducted in strict compliance with the bioethical guidelines established under Spanish legislation. Erythrocytes were isolated by centrifugation (3000 rpm/10 min). The supernatant was discarded, and the erythrocytes were washed three times with PBS (phosphate-buffered saline, pH 7.4) and then resuspended in PBS at a concentration of 8 × 10^9 cells/mL. Subsequently, varying volumes of a concentrated surfactant solution were added to Eppendorf tubes containing 25 μL of erythrocyte suspension. PBS was then added to bring the total volume to 1 mL. The samples were gently shaken for 10 min at room temperature and centrifuged at 10,000 rpm for 5 min. Hemolysis was evaluated by measuring the absorbance of the supernatant at 540 nm and comparing it to that of a 100% hemolysis control (erythrocytes treated with distilled water). The HC50, defined as the surfactant concentration that induces 50% hemolysis, was determined from the concentration–response curves: % hemolysis= Abstest compound/AbsBasal haemolytic activity ×100

[1] = Surface tension, pendant drop tensiometer (cmc, γc); format: physicochemical; conditions: for cmc: from surface tension
Procedure: Surface tension was measured using a custom-built pendant drop tensiometer, as described in detail in reference. Briefly, a droplet of surfactant solution is formed at the tip of a straight-cut Teflon tube. The image of the droplet is captured using a webcam, and its shape is analyzed by fitting the droplet profile to the Laplace–Young equation [14], To minimize evaporation, all measurements were conducted in a saturated humid atmosphere. The use of this technique is especially well-suited for cationic surfactants because it helps to mitigate complications related to surface adsorption. Critical micelle concentration values (cmc) were determined by finding the intersection of the linear fits before and after the break in the curves.

[2] = test system: Candida albicans ATCC 90028; assay: MIC broth microdilution; format: cell-based; conditions: C. albicans; for MIC: Candida albicans, ATCC90028, read-out: MIC
Procedure: (§1) The antimicrobial activity of these compounds was assessed against selected yeast and bacterial strains: Candida albicans ATCC 90028 (CA9), Candida rugosa ATCC 10571 (CR), Candida glabrata ATCC 66032 (CG), Candida parapsilosis ATCC 22019 (CP), Candida tropicalis ATCC 7349 (CT), Candida auris ATCC 21092 (CA), and Cyberlindnera jadinii ATCC 60459. Frozen yeast stocks were plated on Sabouraud agar (SBA) and incubated at 30 °C for 24 h. Three to four colonies from each strain were then suspended in RPMI 1640 (Roswell Park Memorial Institute medium, Sigma- Aldrich, Merck, Darmstadt, Germany) to prepare bacterial dispersions of ~1.5 × 10^6 CFU/mL.
(§2) A broth microdilution assay was used to calculate MIC values. Twofold serially diluted compounds in RPMI 1640 medium (from 256 to 2 μg/mL), were dispensed (100 μL per well) into a 96-well plate. Then, 100 μL of a yeast starter culture was added to each well to reach a final inoculum of 7.5 × 10^5 CFU/mL. Wells containing only nutrient broth without the tested surfactant served as growth controls. Microbial growth was assessed by turbidity, which reflects increases in biomass and cell count. […] To confirm the obtained MICs, 20 μL of 0.015% (w/v) resazurin was dispensed to each well and incubated for 3 h at 30 °C. Metabolic activity was evidenced by a color change from blue to pink, thereby confirming the MIC value.

[3] = test system: Candida tropicalis ATCC 7349; assay: MIC broth microdilution; format: cell-based; conditions: C. tropicalis; for MIC: Candida tropicalis, ATCC7349, read-out: MIC
Procedure: as §1, §2

[4] = test system: Candida parapsilosis ATCC 22019; assay: MIC broth microdilution; format: cell-based; conditions: C. parapsilosis; for MIC: Lodderomyces parapsilosis, ATCC22019, read-out: MIC
Procedure: as §1, §2

[5] = test system: Cyberlindnera jadinii ATCC 60459 (C. jardinii); assay: MIC broth microdilution; format: cell-based; conditions: for Selectivity Index (HC50/MIC): C. jardini; for MIC: Williopsis jadinii
Procedure: as §1, §2

[6] = test system: Candida rugosa ATCC 10571; assay: MIC broth microdilution; format: cell-based; conditions: C. rugosa; for MIC: Diutina rugosa, ATCC10571, read-out: MIC
Procedure: as §1, §2

[7] = test system: Candida glabrata ATCC 66032; assay: MIC broth microdilution; format: cell-based; conditions: for MIC: Nakaseomyces glabratus, read-out: MIC
Procedure: as §1, §2

Candida auris ATCC 21092 = assay: MIC broth microdilution; format: cell-based; conditions: C. auris; for MIC: Candidozyma auris, ATCC21092, read-out: MIC
Procedure: as §1, §2

[8] = parameters: method as in PMID 36559096; conditions: conductivity values; cited from earlier work
[9] = parameters: method as in PMID 36559096; conditions: CO2 Headspace test, pass level 60%; cited from earlier work
C. albicans biofilms = assay: Eradication of mature biofilm, MTT method; format: cell-based, Candida albicans; conditions: highest concentration tested
Procedure: Candida strains were cultured in SBA at 30 °C for 24 h. Yeast cells were then suspended in RPMI 1640 broth to a final concentration of 1.5 × 10^7 CFU/mL. For mature biofilm formation, 200 μL of these suspensions was transferred to each well of a 48-well microplate and incubated at 30 °C for 24 h. After incubation, the plate was washed with phosphate-buffered saline (PBS) to remove non-adherent cells. Then, surfactant solutions at various concentrations (200 μL), prepared in RPMI 1640, were added to the wells containing the mature biofilms. Plates were incubated again at 30 °C for 24 h. Following this treatment, the RPMI medium was removed, and wells were washed twice with PBS. To assess biofilm viability, 200 μL of MTT solution (3-(4,5-dimethylthiazol-2-yl)-2,5-diphenyltetrazolium bromide) were added to each well, and plates were incubated for 4 h. After incubation, the MTT solution was removed, and 200 μL of dimethyl sulfoxide (DMSO) were added to solubilize the formazan crystals. Absorbance at 540 nm (A540) was then measured using a microplate reader. Controls without the amino acid-based surfactants were included. All experiments were made in quadruplicate, and the results were averaged to ensure accuracy and reproducibility.
In this section, we have tested the ability of these cationic surfactants to eradicate mature fungal biofilms of C. albicans and C. tropicalis. Preformed biofilms of these two strains on 48-well plates were exposed to various concentrations of the synthesized surfactants, and the biofilm was not removed after the treatment was quantified using the MTT method (3-[4,5-dimethylthiazol-2-yl]-2,5 diphenyl tetrazolium bromide) (Figure 4). This method detects viable and metabolically active cells within the biofilm by measuring the reduction in MTT to formazan by active mitochondrial enzymes.

Daphnia magna = assay: Acute toxicity, immobilization test; format: in vivo
Procedure: Aquatic toxicity evaluation was performed using Daphnia magna following established protocols. This bioassay method employs laboratory-cultured freshwater microcrustaceans to evaluate surfactant toxicity in aquatic environments. Test organisms were utilized during their initial 24 h life stage to ensure consistency. The endpoint measurement focused on mobility impairment, specifically the loss of swimming capability after gentle stimulation lasting 15 s. Testing conditions included controlled water chemistry parameters: pH maintained at 8.0, calcium-to-magnesium ratio of 4:1, and total hardness of 250 mg/L as CaCO3. All experiments were conducted under dark conditions at 20 °C. The experimental design incorporated ten test concentrations for each surfactant compound, distributed in geometric progression. Each concentration level included 20 Daphnia specimens distributed across four replicate groups of five organisms each. Mobility assessment occurred at 48 h post-exposure, with immobilization percentages plotted against concentration using probability–logarithmic scaling.

Vibrio fischeri = assay: Luminescence reduction test; format: cell-based; conditions: Aliivibrio fischeri, 0.25 h; Vibrio fischeri bioluminescence, 15 min of exposure; 95% confidence intervals in parentheses
Procedure: Ecotoxicological assessment of cationic surfactants was conducted using the Vibrio fischeri luminescent bioassay. This method relies on the measurement of decreased bioluminescent output from marine bacteria following contact with potentially toxic substances. Regression analysis was used to determine the concentration of the compound that caused a 50% reduction (EC50) in the amount of light emitted by the bacteria. The stated toxicity statistics given are based on the bacteria being exposed to the ionic liquid solution for 15 min at 15 °C.

[10] = ATCC66032, 24 h, C. glabrata, RPMI 1640, 24 h, 30 °C
[11] = ATCC66032, C. glabrata, value in parentheses
[12] = ATCC60459, C. jardinii, RPMI 1640, 24 h, 30 °C, read-out: MIC
[13] = ATCC60459, C. jardinii, value in parentheses, read-out: MIC

Row | Molecule | HC50 (erythrocytes; 10 min, room temperature) | HC50 (erythrocytes; value in parentheses) | γc (surface tension at the cmc) [1] | cmc [1] | MIC ([2]; RPMI 1640, 24 h, 30 °C) | MIC ([2]; value in parentheses) | MIC ([3]; RPMI 1640, 24 h, 30 °C) | MIC ([3]; value in parentheses) | MIC ([4]; RPMI 1640, 24 h, 30 °C) | MIC ([4]; value in parentheses) | MIC ([6]; RPMI 1640, 24 h, 30 °C) | MIC ([6]; value in parentheses) | MIC [7, 10] | MIC [7, 11] | MIC (Candida auris ATCC 21092; RPMI 1640, 24 h, 30 °C) | MIC (Candida auris ATCC 21092; value in parentheses) | cmc Cond [8] | MIC [5, 12] | MIC [5, 13] | further results
1 | CCCCCCCCCCCC(=O)NC(Cc1c[nH]c2ccccc12)C(=O)NC(CCCNC(=N)N)C(=O)OC (stereo not drawn) [C12TAM] (Lauroyl-Trp-Arg-OMe; configuration not given here) | 24 ± 0.8 µg/mL | 40 ± 1.6 µM | 32.1 ± 2.3 mNm^−1 | 0.65 mM | 32 µg/mL | 54 µM | 16 µg/mL | 27 µM | 16 µg/mL | 27 µM | 8 µg/mL | 13 µM | 16 µg/mL | 27 µM | 16 µg/mL | 27 µM | 0.5 mM | – | – | Selectivity Index (HC50/MIC) ([2]; Table S1): 0.7; Selectivity Index (HC50/MIC) ([3]; Table S1): 1.4; Selectivity Index (HC50/MIC) ([4]; Table S1): 1.4; Selectivity Index (HC50/MIC) ([5]; Table S1): 0.7; MIC ([5]; ATCC60459): 54 µM; MIC ([5]; ATCC60459, 24 h): 32 µg/mL; Selectivity Index (HC50/MIC) ([6]; Table S1): 3; Selectivity Index (HC50/MIC) ([7]; C. glabrata, Table S1): 1.4; Selectivity Index (HC50/MIC) (Candida auris ATCC 21092; Table S1): 1.4; biodegradation [9]: over 60%; reduction of the metabolic activity of the biofilm (C. albicans biofilms): less than 65%
2 | dodecyl dimethyl ammonium bromide [DDAB, reference compound] | – | – | – | – | – | – | – | – | – | – | – | – | – | – | – | – | – | – | – | EC50 (Daphnia magna; Daphnia magna immobilization, 48 h of exposure, 95% confidence intervals in parentheses): 0.15 (0.14–0.17) μg/mL
3 | CCCCCCCCCCCCCCNC(=O)C(CCCNC(=N)N)NC(=O)C(N)Cc1c[nH]c2ccccc12 (centres unmarked) [TANHC14] | 16 ± 0.18 µg/mL | 26 ± 0.3 µM | 32.8 ± 1.2 mNm^−1 | 0.7 mM | 16 µg/mL | 25 µM | 4 µg/mL | 7 µM | 16 µg/mL | 25 µM | 4 µg/mL | 7 µM | 8 µg/mL | 14 µM | 16 µg/mL | 25 µM | 0.3 mM | 8 µg/mL | 14 µM | Selectivity Index (HC50/MIC) ([2]; Table S2): 1.1; Selectivity Index (HC50/MIC) ([3]; Table S2): 3.7; Selectivity Index (HC50/MIC) ([4]; Table S2): 1.1; Selectivity Index (HC50/MIC) ([5]; Table S2): 1.9; Selectivity Index (HC50/MIC) ([6]; Table S2): 3.7; Selectivity Index (HC50/MIC) ([7]; C. glabrata, Table S2): 1.9; Selectivity Index (HC50/MIC) (Candida auris ATCC 21092; Table S2): 1.1; EC50 (Daphnia magna; Daphnia magna, 48 h): 0.85 µg/mL (≈ 1.53 µM); EC50 (Vibrio fischeri): 2.6 µg/mL (≈ 4.68 µM)
4 | CCCCCCCCNC(=O)C(CCCNC(=N)N)NC(=O)C(N)Cc1ccccc1 (centres unmarked) [PANHC8] | – | – | – | – | > 256 µg/mL | > 512 µM | 256 µg/mL | 512 µM | 256 µg/mL | 512 µM | > 256 µg/mL | > 512 µM | 256 µg/mL | 512 µM | > 256 µg/mL | > 512 µM | – | > 256 µg/mL | > 512 µM | –
